Measurements published in PubChem BioAssay AID1845208 (Molecular Pharmacology Branch, DTP, NCI, 2023).

Tested on: NCI-H196 SCLC complex tumor spheroid viability
Experiment: Anticancer human tumor NCI-H196 cell line growth inhibition;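 note: spheroids exposed to compounds for 7 days before readout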;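 for viability, T/C: 100% = DMSO vehicle control wells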
Conditions: for IC50: curve of first compound; for viability, T/C: stronger effect = lower value
Method in brief: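 Complex tumor spheroids combined malignant cells with endothelial cells and mesenchymal stem cells. DNA-damaging drugs and DNA repair inhibitors were tested alone and in combination, at half-log dilutions down from clinical Cmax (top 10 microM if Cmax unknown), 0.25% DMSO final.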

[1] = second compound 0.003 µM, first compound 0.0316 µM
[2] = second compound 0.003 µM, first compound 0.1 µM
[3] = second compound 0.003 µM, first compound 0.316 µM
[4] = second compound 0.003 µM, first compound 1 µM
[5] = second compound 0.003 µM, first compound 3.16 µM
[6] = second compound 0.003 µM, first compound 10 µM
[7] = second compound 0.00949 µM, first compound 0.0316 µM
[8] = second compound 0.00949 µM, first compound 0.1 µM
[9] = second compound 0.00949 µM, first compound 0.316 µM
[10] = second compound 0.00949 µM, first compound 1 µM
[11] = second compound 0.00949 µM, first compound 3.16 µM
[12] = second compound 0.00949 µM, first compound 10 µM
[13] = second compound 0.03 µM, first compound 0.0316 µM
[14] = second compound 0.03 µM, first compound 0.1 µM
[15] = second compound 0.03 µM, first compound 0.316 µM
[16] = second compound 0.03 µM, first compound 1 µM
[17] = second compound 0.03 µM, first compound 3.16 µM
[18] = second compound 0.03 µM, first compound 10 µM
[19] = second compound 0.0949 µM, first compound 0.0316 µM
[20] = second compound 0.0949 µM, first compound 0.1 µM
[21] = second compound 0.0949 µM, first compound 0.316 µM
[22] = second compound 0.0949 µM, first compound 1 µM
[23] = second compound 0.0949 µM, first compound 3.16 µM
[24] = second compound 0.0949 µM, first compound 10 µM
[25] = second compound 0.3 µM, first compound 0.0316 µM
[26] = second compound 0.3 µM, first compound 0.1 µM
[27] = second compound 0.3 µM, first compound 0.316 µM
[28] = second compound 0.3 µM, first compound 1 µM
[29] = second compound 0.3 µM, first compound 3.16 µM
[30] = second compound 0.3 µM, first compound 10 µM

Structure (SMILES)	IC50 (second compound 0.003 µM) [µM]	IC50 (second compound 0.00949 µM) [µM]	IC50 (second compound 0.03 µM) [µM]	IC50 (second compound 0.0949 µM) [µM]	IC50 (second compound 0.3 µM) [µM]	viability, T/C [1] [%]	viability, T/C [2] [%]	viability, T/C [3] [%]	viability, T/C [4] [%]	viability, T/C [5] [%]	viability, T/C [6] [%]	viability, T/C [7] [%]	viability, T/C [8] [%]	viability, T/C [9] [%]	viability, T/C [10] [%]	viability, T/C [11] [%]	viability, T/C [12] [%]	viability, T/C [13] [%]	viability, T/C [14] [%]	viability, T/C [15] [%]	other results
CC(C)n1c(=O)n(C)c2cnc3cc(F)c(-c4ccc(OCCCN5CCCCC5)nc4)cc3c21 + CC[C@@]1(O)C(=O)OCc2c1cc1n(c2=O)Cc2cc3c(CN(C)C)c(O)ccc3nc2-1	> 10	> 10	> 10	> 10	> 10	102	106	105	107	110	113	105	107	109	112	110	103	102	102	104	viability, T/C [16]: 101%; viability, T/C [17]: 95.9%; viability, T/C [18]: 87.9%; viability, T/C [19]: 116%; viability, T/C [20]: 113%; viability, T/C [21]: 104%; viability, T/C [22]: 86.5%; viability, T/C [23]: 74.9%; viability, T/C [24]: 71.9%; viability, T/C [25]: 110%; viability, T/C [26]: 107%; viability, T/C [27]: 108%; viability, T/C [28]: 88.1%; viability, T/C [29]: 78.5%; viability, T/C [30]: 71.4%
CC1COCCN1c1cc(-c2ccnn2C)c2ccnc(-c3ccn[nH]3)c2n1 (stereo not given) + CC[C@@]1(O)C(=O)OCc2c1cc1n(c2=O)Cc2cc3c(CN(C)C)c(O)ccc3nc2-1	4.08	2.26	4.78	4.15	0.334	83	75.1	68.1	57	50.6	47.3	75.4	69.9	67	51.4	52	45	70.8	64.9	60.9	viability, T/C [16]: 57.6%; viability, T/C [17]: 50.2%; viability, T/C [18]: 47.6%; viability, T/C [19]: 62.8%; viability, T/C [20]: 61.5%; viability, T/C [21]: 61.7%; viability, T/C [22]: 57.1%; viability, T/C [23]: 50.7%; viability, T/C [24]: 44.3%; viability, T/C [25]: 55.9%; viability, T/C [26]: 51.7%; viability, T/C [27]: 48.4%; viability, T/C [28]: 49.1%; viability, T/C [29]: 43.4%; viability, T/C [30]: 38.5%
